These results are taken from article PMC6100240, “Discovery of 2-(4-Substituted-piperidin/piperazine-1-yl)-N-(5-cyclopropyl-1H-pyrazol-3-yl)-quinazoline-2,4-diamines as PAK4 Inhibitors with Potent A549 Cell Proliferation, Migration, and Invasion Inhibition Activity” (Molecules : A Journal of Synthetic Chemistry and Natural …, 2018).

Data set [1] has as its target T1, PAK4 (Homo sapiens, UniProt O96013).
T1 construct: purchased Sigma-Aldrich
Nature of the data set: PAK4 HTRF kinase assay. The data set is classed as biochemical.

Data set [2] concerns human gastric cancer cells. Further details: method as in PMID 22085492. Particulars: cited from earlier work.
For data set [3], the system named is A549 cells. Nature of the data set: Transwell cell migration assay. The data set is classed as cell-based, human. Particulars: 24 h. The protocol:
(§1) We next examined the effects of compound 8d on the cycle progression of A549. Cells were treated with compound 8d at varying concentrations (1.0, 3.0, 9.0 μM) and vehicle (dimethyl sulfoxide−DMSO) for 24 h, and subjected to flow cytometry analysis to determine the distribution of cells in various phases of the cell cycle. […] PAK4 activity is involved in cytoskeleton dynamics and cancer cell migration and invasion; therefore, the inhibitory effect of 8d on A549 cell migration and invasion were analyzed.
(§2) Cell migration assays were evaluated in transwell chambers (Corning Incorporated, Corning, NY, USA). Cell invasion assays were evaluated in Matrigel invasion chambers (Becton-Dickinson). First, 0.5 × 10^5 tumor cells were plated in the top chamber with RPMI-1640 medium without FBS. Test compound was added to the bottom chamber with 500 µL medium containing 20% FBS. After incubation for 24 h at 37 °C, the cells were fixed in 100% methanol and stained with 0.1% crystal violet, then washed with PBS; the cells that had not migrated from the top surface of the filters were removed with cotton. Migrated cells were quantified by counting them in three randomly selected fields on the diameter under a microscope at 200× magnification

Data set [4] relates to A549 cell line. Nature of the data set: MTT cell proliferation assay, A549. The data set is classed as cell-based. Particulars: Homo sapiens, 50% cell growth inhibition after 24 h of drug exposure. The method, then:
(§3) Meanwhile, the tumor cell line HT1080, whose growth is not dependent on PAK4, was used to test the potential off-target effects of the potent PAK4 inhibitors.
(§4) The human pulmonary carcinoma cell line A549 and the human fibrosarcoma cell line HT1080 were cultured in RPMI-1640 medium containing 10% fetal bovine serum (FBS), at 37 °C in a humidified atmosphere containing 5% CO2.
(§5) The in vitro antiproliferative activity of some of the target compounds was determined by the MTT assay (Amresco, Seattle, WA, USA). A suspension of 100 µL human cancer cells (5 × 10^4/mL) was plated in a 96-well cell culture plate and incubated with 5% CO2 at 37 °C for 24 h. Then cells were exposed to various concentrations of compounds and further cultured for 24 h. After that, MTT was added and absorbance was measured at 490 nm using a EL × 800 microplate reader (BioTek, Winooski, VT, USA). Dose-response curves were plotted to determine the IC50 values using GraphPad Prism 5.0. Each IC50 value was expressed as mean ± standard deviation.
In general terms: Formazan colour is commonly taken as a measure of viable cells.

For data set [5], the system named is HT1080. Nature of the data set: MTT cell proliferation assay, HT1080. The format is cell-based, human. Particulars: for IC50: Homo sapiens, HT-1080, 50% cell growth inhibition after 24 h of drug exposure, MTT assay; for Activity against HT1080 (off-target check): growth not dependent on PAK4. The protocol:
as §3, §4, §5

The subject of data set [6] is A549 cells. The data set is described as follows: Matrigel cell invasion assay. The data set is classed as cell-based, human. Particulars: A549, Matrigel chamber, 24 h. The protocol: as §1, §2

What is called IC50 is the concentration needed to halve the response being measured. A lower IC50 goes with higher potency. As usually defined, the melting point is the temperature of the solid-liquid transition.

T1 sequence (O96013 whole entry): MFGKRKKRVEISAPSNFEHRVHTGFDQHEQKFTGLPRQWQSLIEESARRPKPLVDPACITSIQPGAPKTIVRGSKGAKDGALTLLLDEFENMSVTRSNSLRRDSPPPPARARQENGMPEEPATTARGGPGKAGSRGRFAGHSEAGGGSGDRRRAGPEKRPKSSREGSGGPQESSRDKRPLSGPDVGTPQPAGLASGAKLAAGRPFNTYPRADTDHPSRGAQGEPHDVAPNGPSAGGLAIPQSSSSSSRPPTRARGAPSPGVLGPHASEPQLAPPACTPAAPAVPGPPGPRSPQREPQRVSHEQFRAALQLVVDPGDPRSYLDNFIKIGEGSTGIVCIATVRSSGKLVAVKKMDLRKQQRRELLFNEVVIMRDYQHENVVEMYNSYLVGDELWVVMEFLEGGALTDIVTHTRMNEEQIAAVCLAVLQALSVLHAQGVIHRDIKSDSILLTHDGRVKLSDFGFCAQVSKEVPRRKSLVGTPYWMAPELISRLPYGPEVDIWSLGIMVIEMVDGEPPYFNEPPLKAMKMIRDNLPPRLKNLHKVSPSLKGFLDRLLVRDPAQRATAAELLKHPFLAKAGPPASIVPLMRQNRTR

As for `Clc1ccc2nc(N3CCN(c4ccc(Br)cc4)CC3)nc(Nc3cc(C4CC4)[nH]n3)c2c1` [Compound 7c, 2-(4-(4-Bromophenyl)piperazin-1-yl)-6-chloro-N-(5-cyclopropyl-1H-pyrazol-3-yl)quinazolin-4-amine], the melting point lay within 248.7 to 251.9 °C. Half-maximal inhibition in data set [1] (IC50) was put at 100 nM.
The like results for `Clc1ccc(N2CCN(c3nc(Nc4cc(C5CC5)[nH]n4)c4cc(Cl)ccc4n3)CC2)cc1` [Compound 7e, 6-Chloro-2-(4-(4-chlorophenyl)piperazin-1-yl)-N-(5-cyclopropyl-1H-pyrazol-3-yl)quinazolin-4-amine] were, in that order, 250 to 251.8 °C and 160 nM.
The like results for `Cc1cnc(N2CCN(c3nc(Nc4cc(C5CC5)[nH]n4)c4cc(Cl)ccc4n3)CC2)nc1` [Compound 9b, 6-Chloro-N-(5-cyclopropyl-1H-pyrazol-3-yl)-2-(4-(5-methylpyrimidin-2-yl)piperazin-1-yl)quinazolin-4-amine] were, in that order, 262.8 to 264.7 °C and 110 nM.
For `Clc1ccc2nc(N3CCC(N4CCCCC4)CC3)nc(Nc3cc(C4CC4)[nH]n3)c2c1` [Compound 6a, ([1,4′-Bipiperidin]-1′-yl)-6-chloro-N-(5-cyclopropyl-1H-pyrazol-3-yl)quinazolin-4-amine], in that order: 208.3 to 209.6 °C and 440 nM.
Take `COc1cccc(Nc2nc(NCC3CCCO3)c3ccccc3n2)c1` (centres unmarked) [LCH-7749944, N^2-(3-methoxyphenyl)-N^4-((tetrahydrofuran-2-yl)methyl)quinazoline-2,4-diamine]: the “Effect on proliferation, migration, and invasion” value in data set [2] is given as “effectively suppressed”.
`Clc1ccc2nc(N3CCN(c4ncccn4)CC3)nc(Nc3cc(C4CC4)[nH]n3)c2c1` [Compound 9a, 6-Chloro-N-(5-cyclopropyl-1H-pyrazol-3-yl)-2-(4-(pyrimidin-2-yl)piperazin-1-yl)quinazolin-4-amine] displayed a melting point of 249.3 to 250.5 °C. In addition, the IC50 in data set [1] came out at 380 nM.
The like results for `Clc1cccc(N2CCN(c3nc(Nc4cc(C5CC5)[nH]n4)c4cc(Cl)ccc4n3)CC2)c1` [Compound 7f, 6-Chloro-2-(4-(3-chlorophenyl)piperazin-1-yl)-N-(5-cyclopropyl-1H-pyrazol-3-yl)quinazolin-4-amine] were, in that order, 229.9 to 232.6 °C and 490 nM.
For `COc1cccc(N2CCN(c3nc(Nc4cc(C5CC5)[nH]n4)c4cc(Cl)ccc4n3)CC2)c1` [Compound 7h, 6-Chloro-N-(5-cyclopropyl-1H-pyrazol-3-yl)-2-(4-(3-methoxyphenyl)piperazin-1-yl)quinazolin-4-amine], in that order: 199.9 to 201.8 °C and 690 nM.
On to `Clc1ccc2nc(N3CCN(c4ccc(Br)cn4)CC3)nc(Nc3cc(C4CC4)[nH]n3)c2c1` [Compound 8d, 2-(4-(5-Bromopyridin-2-yl)piperazin-1-yl)-6-chloro-N-(5-cyclopropyl-1H-pyrazol-3-yl)quinazolin-4-amine], for which the melting point was in the range of 270.5 to 272.8 °C. In addition, the “Effect on cell migration” value in data set [3] was “decreased the migration and invasion potential”. Also, in data set [1], half-maximal inhibition (IC50) was put at 60 nM. The IC50 in data set [4] turned out to be 4680 nM. In addition, in data set [5], the IC50 was found to be 21500 nM and the “Activity against HT1080 (off-target check)” value is listed as “negligible activity”. The “Effect on cell invasion” value in data set [6] is “decreased the migration and invasion potential”.
`FC(F)(F)c1ccc(N2CCN(c3nc(Nc4cc(C5CC5)[nH]n4)c4cc(Cl)ccc4n3)CC2)nc1` [Compound 8e, 6-Chloro-N-(5-cyclopropyl-1H-pyrazol-3-yl)-2-(4-(5-(trifluoromethyl)pyridin-2-yl)piperazin-1-yl)quinazol-in-4-amine] returned a melting point of 247.6 to 259.6 °C. In data set [1], half-maximal inhibition (IC50) required 220 nM.
Consider `Clc1ccc2nc(N3CCN(c4ccccc4)CC3)nc(Nc3cc(C4CC4)[nH]n3)c2c1` [Compound 7a, 6-Chloro-N-(5-cyclopropyl-1H-pyrazol-3-yl)-2-(4-phenylpiperazin-1-yl)quinazolin-4-amine], for which the melting point lay in the range of 239.5 to 240.8 °C. The compound further yielded an IC50 in data set [1] of 850 nM.
Compound `Clc1ccc2nc(N3CCC(N4CCOCC4)CC3)nc(Nc3cc(C4CC4)[nH]n3)c2c1` [Compound 6b] registered a melting point of 214.3 to 216.6 °C. For the same compound, in data set [1], it took 560 nM to reach half-maximal inhibition (IC50).
For `Fc1ccc(N2CCN(c3nc(Nc4cc(C5CC5)[nH]n4)c4cc(Cl)ccc4n3)CC2)cc1` [Compound 7i, 6-Chloro-N-(5-cyclopropyl-1H-pyrazol-3-yl)-2-(4-(4-fluorophenyl)piperazin-1-yl)quinazolin-4-amine], in that order: 228.8 to 231 °C and 200 nM.
For `Cc1ccc(N2CCN(c3nc(Nc4cc(C5CC5)[nH]n4)c4cc(Cl)ccc4n3)CC2)cc1` [Compound 7b, 6-Chloro-N-(5-cyclopropyl-1H-pyrazol-3-yl)-2-(4-(p-tolyl)piperazin-1-yl)quinazolin-4-amine], in that order: 204.9 to 207.5 °C and 240 nM.
For `COc1ccnc(N2CCN(c3nc(Nc4cc(C5CC5)[nH]n4)c4cc(Cl)ccc4n3)CC2)c1` [Compound 8b, 6-Chloro-N-(5-cyclopropyl-1H-pyrazol-3-yl)-2-(4-(4-methoxypyridin-2-yl)piperazin-1-yl)quinazolin-4-amine], in that order: 210.3 to 211.6 °C and 380 nM.
The compound `COc1ccc(N2CCN(c3nc(Nc4cc(C5CC5)[nH]n4)c4cc(Cl)ccc4n3)CC2)cc1` [Compound 7g, 6-Chloro-N-(5-cyclopropyl-1H-pyrazol-3-yl)-2-(4-(4-methoxyphenyl)piperazin-1-yl)quinazolin-4-amine] gave a melting point of 237.1 to 239.5 °C. This compound came in with an IC50 in data set [1] of 300 nM.
For `Cc1ccc(N2CCN(c3nc(Nc4cc(C5CC5)[nH]n4)c4cc(Cl)ccc4n3)CC2)nc1` [Compound 8c, 6-Chloro-N-(5-cyclopropyl-1H-pyrazol-3-yl)-2-(4-(5-methylpyridin-2-yl)piperazin-1-yl)quinazolin-4-amine], in that order: 263 to 265.4 °C and 87 nM.
For `Clc1ccc2nc(N3CCN(c4ccccn4)CC3)nc(Nc3cc(C4CC4)[nH]n3)c2c1` [Compound 8a, 6-Chloro-N-(5-cyclopropyl-1H-pyrazol-3-yl)-2-(4-(pyridin-2-yl)piperazin-1-yl)quinazolin-4-amine], in that order: 184.4 to 186.7 °C and 310 nM.
For `Clc1ccc2nc(N3CCN(c4ncc(Br)cn4)CC3)nc(Nc3cc(C4CC4)[nH]n3)c2c1` [Compound 9c, 2-(4-(5-Bromopyrimidin-2-yl)piperazin-1-yl)-6-chloro-N-(5-cyclopropyl-1H-pyrazol-3-yl)quinazolin-4-amine], the melting point fell in the range of 280.6 to 282.7 °C. The compound further registered an IC50 in data set [1] of 68 nM. Moreover, 4750 nM corresponded to half-maximal inhibition in data set [4] (IC50). For the same compound, in data set [5], the IC50 came to 39300 nM and the “Activity against HT1080 (off-target check)” value is recorded as “negligible activity”.
As for `FC(F)(F)c1ccc(N2CCN(c3nc(Nc4cc(C5CC5)[nH]n4)c4cc(Cl)ccc4n3)CC2)cc1` [Compound 7d, 6-Chloro-N-(5-cyclopropyl-1H-pyrazol-3-yl)-2-(4-(4-(trifluoromethyl)phenyl)piperazin-1-yl)quinazolin-4-amine], the melting point is 256.4 to 257.8 °C. This compound showed an IC50 in data set [1] of 650 nM.
